Reference: ChEMBL document CHEMBL5223109, “The discovery of BMS-737 as a potent, CYP17 lyase-selective inhibitor for the treatment of castration-resistant prostate cancer” (Bioorg Med Chem Lett, 2022)

How the values were obtained:
[1] = molecular target: Cytochrome P450 3A4 (Homo sapiens, UniProt P08684); test: Inhibition of recombinant human CYP3A4; type: ADME
[2] = Cmax in cynomolgus monkey at 1 mg/kg, po; type: ADME, organism-based, Macaca fascicularis; design: dose 1 mg/kg, route po; conditions: in vivo
[3] = Metabolic stability in cynomolgus monkey liver microsomes assessed as parent compound remaining relative to control; type: ADME, Macaca fascicularis, Microsome
[4] = molecular target: T1, Steroid 21-hydroxylase (Homo sapiens, UniProt P08686); test: Inhibition of human CYP21A2; type: ADME
T1 sequence (P08686 whole entry): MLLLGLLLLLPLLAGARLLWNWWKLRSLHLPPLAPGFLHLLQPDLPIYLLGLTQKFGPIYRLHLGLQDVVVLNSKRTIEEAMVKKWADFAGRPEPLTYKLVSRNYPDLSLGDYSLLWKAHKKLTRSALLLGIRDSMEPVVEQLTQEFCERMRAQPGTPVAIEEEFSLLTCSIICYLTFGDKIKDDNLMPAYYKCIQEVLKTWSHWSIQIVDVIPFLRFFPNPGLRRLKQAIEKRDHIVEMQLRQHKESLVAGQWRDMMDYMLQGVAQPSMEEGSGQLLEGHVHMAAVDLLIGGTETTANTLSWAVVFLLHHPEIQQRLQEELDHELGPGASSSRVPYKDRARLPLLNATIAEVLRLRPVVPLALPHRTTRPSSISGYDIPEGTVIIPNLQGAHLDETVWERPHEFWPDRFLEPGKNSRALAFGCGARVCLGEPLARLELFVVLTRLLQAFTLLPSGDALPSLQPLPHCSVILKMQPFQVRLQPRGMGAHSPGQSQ

[5] = Clearance in cynomolgus monkey at 1 mg/kg, iv; type: ADME, organism-based, Macaca fascicularis; conditions: in vivo
[6] = molecular target: T2, Steroid 17-alpha-hydroxylase/17,20 lyase (Macaca fascicularis, UniProt Q2XVA1); test: Inhibition of cynomolgus monkey CYP17A1; type: ADME
T2 sequence (Q2XVA1 whole entry): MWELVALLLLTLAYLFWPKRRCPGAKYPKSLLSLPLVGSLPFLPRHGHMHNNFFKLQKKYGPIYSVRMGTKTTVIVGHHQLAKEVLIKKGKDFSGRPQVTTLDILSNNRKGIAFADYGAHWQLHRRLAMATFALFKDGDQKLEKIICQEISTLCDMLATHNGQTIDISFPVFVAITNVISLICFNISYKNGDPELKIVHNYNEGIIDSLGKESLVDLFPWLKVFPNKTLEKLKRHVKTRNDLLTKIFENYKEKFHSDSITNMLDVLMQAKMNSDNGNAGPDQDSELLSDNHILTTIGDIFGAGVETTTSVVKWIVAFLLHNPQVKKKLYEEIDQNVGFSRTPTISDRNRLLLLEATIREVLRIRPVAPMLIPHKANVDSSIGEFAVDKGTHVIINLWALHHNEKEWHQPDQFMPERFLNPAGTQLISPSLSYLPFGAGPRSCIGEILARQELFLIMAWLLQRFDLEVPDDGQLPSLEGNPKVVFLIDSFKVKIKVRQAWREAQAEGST

Sequence of Cytochrome P450 3A4 (P08684 whole entry): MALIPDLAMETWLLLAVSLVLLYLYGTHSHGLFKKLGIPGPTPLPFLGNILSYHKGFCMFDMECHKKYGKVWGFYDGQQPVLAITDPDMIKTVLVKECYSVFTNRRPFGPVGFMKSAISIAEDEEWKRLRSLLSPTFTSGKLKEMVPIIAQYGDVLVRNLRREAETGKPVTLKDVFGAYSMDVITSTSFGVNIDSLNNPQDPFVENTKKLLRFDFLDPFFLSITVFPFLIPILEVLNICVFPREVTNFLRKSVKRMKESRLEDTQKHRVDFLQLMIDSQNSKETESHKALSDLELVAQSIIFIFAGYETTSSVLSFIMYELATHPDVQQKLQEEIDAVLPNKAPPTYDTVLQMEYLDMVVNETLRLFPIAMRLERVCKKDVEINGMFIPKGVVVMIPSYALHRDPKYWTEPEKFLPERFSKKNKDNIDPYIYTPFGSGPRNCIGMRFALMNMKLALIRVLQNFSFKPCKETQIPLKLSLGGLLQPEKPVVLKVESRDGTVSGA

Compound: Nc1ncncc1-c1ccnc2c1cnn2-c1ccc(F)cc1
- IC50 [1]: 36 µM
- Cmax [2]: 1550 nM
- Stability [3]: 96%
- IC50 [4]: > 10 µM
- clearance [5]: 2.8 mL/min/kg
- IC50 [6]: 0.002 µM
